23 molecules from patent US6407116B1, “Nitrogenous fused-ring compounds, process for the preparation of the same, and drugs” (Takeda Chemical Industries, Inc., priority 1997, dated 2002) can be followed below.

In series [1] the test system is histamine-induced dermal vascular hyperpermeability. Nature of the series: Effect on histamine-induced dermal vascular hyperpermeability in guinea pigs. To be noted: 3 mg/kg oral administration, 1 hour before intradermal histamine, male Hartley guinea pigs; for inhibition in vivo at 3 mg/kg: Cavia porcellus. The series is classed as in vivo, guinea pig. On the procedure: Effect on Histamine-induced Dermal Vascular Hyperpermeability in Guinea Pigs
Male Hartley guinea pigs (weighing about 500 g) were used. […] After 30 minutes, the animal was hit on its head to make it unconscious, and cut at its neck to sacrifice by exsanguination. The dorsal skin was peeled and examined for the long and short diameters (mm) of each blue spot which were then multiplied to give a product, which was averaged to give a vascular permeability index. Each substance was suspended in 5% gum arabic solution, and given orally in the volume of 0.2 ml/100 g body weight 1 hour before histamine administration. Control animals received the same volume of 5% gum arabic solution. A % inhibition of this reaction was calculated according to [Equation 1].
% Inhibition of histamine-induced dermal vascular hyperpermeability=100×(1-vascular permeability index in treatment group/vascular permeability index in control group) [Equation 1]

Another series deals with guinea-pig eosinophils. Nature of the series: Chemotaxis inhibition assay: LTB4-induced chemotaxis in guinea-pig eosinophils. To be noted: test substance 1×10^−5 M, LTB4 10^−8 M, 2 hours; for inhibition at 10 µM: Cavia porcellus, Eosinophil. Type of series: cell-based. On the procedure: 1) Guinea-pig Eosinophil Preparation
Male Hartley guinea-pigs received 2 ml of equine serum (Bio-Whittaker, Inc) intraperitoneally once a week for successive 8 weeks. 48 hours after the last administration, 75 ml of physiological saline was injected into the peritoneal cavity, and the fluid was recovered and centrifuged at 400 G for 5 minutes. […] Erythrocytes in the isolated cell pellet, if any, were removed by hypotonic treatment (suspended in water for 30 seconds).
2) Chemotaxis Inhibition Assay
600 μl of LTB4 suspended in Hanks-Hepes-HSA (final concentration of 10^−8 M, Cascade Biochemical Ltd.) was placed in the lower compartment of a 24-well plate and kept at 37° C. for 30 minutes in a CO2 gas incubator. After mounting a Chemotaxicell (polycarbonate membrane, pore size 3 μm, thickness 10 μm), which served as an upper compartment, on the 24-well plate described above, 200 μl of eosinophil suspension (5×10^6 cells/ml), which had been incubated at 37° C. for 15 minutes in a thermostat chamber, was added to the upper compartment. After allowing to react for 2 hours in the CO2 gas incubator, the Chemotaxicell was removed, and 60 μl of 2% (w/v) EDTA solution in physiological saline was added to the lower compartment. After cooling on ice, the cells which underwent the chemotaxis into the lower compartment were counted using a blood cell counter (Coulter Counter (trade name)). In the procedure described above, the test substance was dissolved in N,N-dimethylformamide (DMF) and added to the upper and lower compartments at the final concentration of 10^−5 M.
% Chemotaxis inhibition=[…] [Equation 2]
The results are shown in [Table 2].

Where a name gives a salt, the structure may show the parent alone.

`O=c1nc2n(CCCCN3CCC(OC(c4ccccc4)c4ccccc4)CC3)ccnc-2c(=O)[nH]1` [Example 8, 2,4-Dioxo-8-[4-(4-diphenylmethoxypiperidino)butyl]-1,2,3,4-tetrahydropteridine]: the “Inhibition of histamine-induced dermal vascular hyperpermeability (%)” value in series [1] is 92%. For the molecule `O=c1c2ccccc2n(CCCCN2CCC(OC(c3ccccc3)c3ccccc3)CC2)c(=O)n1CCO` [Example 55, 2,4-Dioxo-1-[4-(4-diphenylmethoxypiperidino)butyl]-3-(2-hydroxyethyl)-1,2,3,4-tetrahydroquinazoline], the melting point lay in the range of 145 to 150 °C. Further, the inhibition at 10 µM in the series on guinea-pig eosinophils amounted to 64%. In the case of `CCOC(=O)C(C)(C)n1c(=O)c2cc(Cl)ccc2n(CCCCN2CCC(OC(c3ccccc3)c3ccccc3)CC2)c1=O` [Example 35, Ethyl 2-[6-chloro-1-[4-(4-diphenylmethoxypiperidino)butyl]-2,4-dioxo-1,2,3,4-tetrahydroquinazolin-3-yl]isobutyrate hydrochloride], the inhibition in vivo at 3 mg/kg in series [1] was 87%. Regarding `COc1ccc(Cn2c(=O)c3ccccc3n(CCCCN3CCC(OC(c4ccccc4)c4ccccc4)CC3)c2=O)cc1` [Example 26, 2,4-Dioxo-1-[4-(4-diphenylmethoxypiperidino)butyl]-3-(4-methoxybenzyl)-1,2,3,4-tetrahydroquinazoline], the melting point is 99 to 100 °C. In the series on guinea-pig eosinophils, the inhibition at 10 µM turned out to be 50%. Take `CC(C)(C(=O)O)n1c(=O)c2cc(F)ccc2n(CCCCN2CCC(OC(c3ccccc3)c3ccccc3)CC2)c1=O` [Example 124, 2-[2,4-Dioxo-1-[4-(4-diphenylmethoxypiperidino)butyl]-6-fluoro-1,2,3,4-tetrahydroquinazolin-3-yl]isobutyric acid hydrochloride]: the inhibition in vivo at 3 mg/kg in series [1] came out at 90%.

`CC(C)(C(=O)O)n1c(=O)c2cc(F)c(F)cc2n(CCCCN2CCC(OC(c3ccccc3)c3ccccc3)CC2)c1=O` [Example 125, 2-[2,4-Dioxo-1-[4-(4-diphenylmethoxypiperidino)butyl]-6,7-difluoro-1,2,3,4-tetrahydroquinazolin-3-yl]isobutyric acid hydrochloride]: the inhibition in vivo at 3 mg/kg in series [1] came out at 81%. `O=c1c2ccccc2n(CCCCN2CCC(OC(c3ccccc3)c3ccccc3)CC2)c(=O)n1CCCc1ccccc1` [Example 58, 2,4-Dioxo-1-[4-(4-diphenylmethoxypiperidino)butyl]-3-(3-phenylpropyl)-1,2,3,4-tetrahydroquinazoline hydrochloride]: the inhibition at 10 µM with guinea-pig eosinophils is 84%. In the case of `O=c1[nH]c(=O)n(CCCCN2CCC(OC(c3ccccc3)c3ccccc3)CC2)c2ccc(Cl)cc12` [Example 10, 6-Chloro-2,4-dioxo-1-[4-(4-diphenylmethoxypiperidino)butyl]-1,2,3,4-tetrahydroquinazoline], the melting point lay in the range of 209 to 210 °C. Moreover, the inhibition at 10 µM in the series on guinea-pig eosinophils was 50%. Regarding `O=C(O)CCCCn1c(=O)c2cc(F)ccc2n(CCCCN2CCC(OC(c3ccccc3)c3ccccc3)CC2)c1=O` [Example 101, 2,4-Dioxo-1-[4-(4-diphenylmethoxypiperidino)butyl]-6-fluoro-1,2,3,4-tetrahydroquinazoline-3-valeric acid], the inhibition at 10 µM in the series with guinea-pig eosinophils stood at 50%. `CN(CC(=O)O)C(=O)Cn1c(=O)c2ccccc2n(CCCCN2CCC(OC(c3ccccc3)c3ccccc3)CC2)c1=O` [Example 114, N-Carboxylmethyl-2,4-dioxo-1-[4-(4-diphenylmethoxypiperidino)butyl]-N-methyl-1,2,3,4-tetrahydroquinazoline-3-acetamide]: in the series with guinea-pig eosinophils, the inhibition at 10 µM worked out at 54%. `CC(C)(C)n1c(=O)c2ccccc2n(CCCCN2CCC(OC(c3ccccc3)c3ccccc3)CC2)c1=O.Cl` [Example 22, 3-(1,1-Dimethylethyl)-2,4-dioxo-1-[4-(4-diphenylmethoxypiperidino)butyl]-1,2,3,4-tetrahydroquinazoline hydrochloride]: the melting point lay within 229 to 231 °C. For the same molecule, in the series on guinea-pig eosinophils, the inhibition at 10 µM amounted to 72%.

Consider `COC(=O)Cc1ccc2c(c1)c(=O)[nH]c(=O)n2CCCCN1CCC(OC(c2ccccc2)c2ccccc2)CC1` [Example 86, Methyl 2,4-dioxo-1-[4-(4-diphenylmethoxypiperidino)butyl]-1,2,3,4-tetrahydroquinazoline-6-acetate], for which, in the series with guinea-pig eosinophils, the inhibition at 10 µM worked out at 55%. Turning to `COC(=O)COC(=O)Cn1c(=O)c2ccccc2n(CCCCN2CCC(OC(c3ccccc3)c3ccccc3)CC2)c1=O` [Example 69, Methoxycarbonylmethyl 2,4-dioxo-1-[4-(4-diphenylmethoxypiperidino)butyl]-1,2,3,4-tetrahydroquinazoline-3-acetate hydrochloride], the inhibition at 10 µM with guinea-pig eosinophils was 96%. Take `Cc1ccc2c(c1)c(=O)[nH]c(=O)n2CCCCN1CCC(OC(c2ccccc2)c2ccccc2)CC1` [Example 13, 2,4-Dioxo-1-[4-(4-diphenylmethoxypiperidino)butyl]-6-methyl-1,2,3,4-tetrahydroquinazoline]: the melting point was in the range of 180 to 182 °C. In addition, the inhibition at 10 µM in the series on guinea-pig eosinophils came to 66%.

`O=C(O)CNC(=O)CCn1c(=O)c2ccccc2n(CCCCN2CCC(OC(c3ccccc3)c3ccccc3)CC2)c1=O` [Example 116, N-Carboxylmethyl-2,4-dioxo-1-[4-(4-diphenylmethoxypiperidino)butyl]-1,2,3,4-tetrahydroquinazoline-3-propionamide hydrochloride]: the inhibition at 10 µM in the series with guinea-pig eosinophils was 52%.

For “N-(2-Carboxylethyl)-carboxylmethyl-2,4-dioxo-1-[4-(4-diphenylmethoxypiperidino)butyl]-N-methyl-1,2,3,4-tetrahydroquinazoline-3-acetamide [Example 115]”, in the series on guinea-pig eosinophils, the “Inhibition (%) of LTB4-induced chemotaxis” value (shortened to “Inhibition (%)”) is 56%. With `O=C(O)CCCCCn1c(=O)c2ccccc2n(CCCCN2CCC(OC(c3ccccc3)c3ccccc3)CC2)c1=O` [Example 98, 2,4-Dioxo-1-[4-(4-diphenylmethoxypiperidino)butyl]-1,2,3,4-tetrahydroquinazoline-3-hexanoic acid], the melting point fell in the range of 155 to 157 °C. Moreover, in the series on guinea-pig eosinophils, the inhibition at 10 µM turned out to be 50%. Consider `CN(CCc1ccccc1)C(=O)Cn1c(=O)c2ccccc2n(CCCCN2CCC(OC(c3ccccc3)c3ccccc3)CC2)c1=O.Cl` [Example 56, 2,4-Dioxo-1-[4-(4-diphenylmethoxypiperidino)butyl]-N-methyl-N-(2-phenethyl)-1,2,3,4-tetrahydroquinazoline-3-acetamide hydrochloride], for which, in the series on guinea-pig eosinophils, the “Inhibition (%)” value was found to be 73%. `CCOC(=O)CN(C)C(=O)Cn1c(=O)c2ccccc2n(CCCCN2CCC(OC(c3ccccc3)c3ccccc3)CC2)c1=O.Cl` [Example 110, 2,4-Dioxo-1-[4-(4-diphenylmethoxypiperidino)butyl]-N-ethoxycarbonylmethyl-N-methyl-1,2,3,4-tetrahydroquinazoline-3-acetamide hydrochloride] gave a melting point of 170 to 172 °C. In addition, the inhibition at 10 µM with guinea-pig eosinophils was found to be 122%. Consider `CCOC(=O)CCNC(=O)Cn1c(=O)c2ccccc2n(CCCCN2CCC(OC(c3ccccc3)c3ccccc3)CC2)c1=O.Cl` [Example 111, 2,4-Dioxo-1-[4-(4-diphenylmethoxypiperidino)butyl]-N-(2-ethoxycarbonylethyl)-1,2,3,4-tetrahydroquinazoline-3-acetamide hydrochloride], for which the melting point lay within 123 to 124 °C. Also, the inhibition at 10 µM in the series with guinea-pig eosinophils came out at 80%. For `COC(=O)CNC(=O)Cn1c(=O)c2ccccc2n(CCCCN2CCC(OC(c3ccccc3)c3ccccc3)CC2)c1=O` [Example 109, 2,4-Dioxo-1-[4-(4-diphenylmethoxypiperidino)butyl]-N-methoxycarbonylmethyl-1,2,3,4-tetrahydroquinazoline-3-acetamide hydrochloride], the inhibition at 10 µM in the series on guinea-pig eosinophils was 55%. `Cl.O=c1[nH]c(=O)n(CCCN2CCC(OC(c3ccccc3)c3ccccc3)CC2)c2ncccc12` [Example 6, 2,4-Dioxo-1-[3-(4-diphenylmethoxypiperidino)propyl]-1,2,3,4-tetrahydropyrido[2,3-d]pyrimidine hydrochloride] displayed a melting point of 131 to 133 °C. In the series on guinea-pig eosinophils, the inhibition at 10 µM was 67%. For `CC(=O)OCC(=O)Nc1ccc2c(c1)c(=O)[nH]c(=O)n2CCCCN1CCC(OC(c2ccccc2)c2ccccc2)CC1` [Example 46, 6-Acetoxyacetamide-2,4-dioxo-1-[4-(4-diphenylmethoxypiperidino)butyl]-1,2,3,4-tetrahydroquinazoline], the “Inhibition (%)” value with guinea-pig eosinophils stood at 52%.
